This is an account of results in US20240423988A1, “Improvement of Tumor Immunogenicity by Means of Splicing-Controlling Compound” (Kyoto University, priority 2021, published 2024).

Experiment [1] has as its system MC38 cells. Kind of experiment: Co-culture assay for tumor-killing activity, peptide-pulsed target cells. To be noted: for tumor-killing responses, individual epitopes: MC38 pulsed with individual peptide, hexavalent peptide-reactive effector cells. Type of experiment: cell-based, murine. From the text: [FIG. 6-1] FIG. 6. Hexavalent vaccination of inducible splice-neoepitopes promotes Compound 1-induced cancer immune responses. A: A schema for the cancer-killing assay. B and C: Representative flow cytometric images showing tumor-killing activity mediated by antigen-elicited effector cells (B) and their quantitative data of annexin V^+/CFSE^+ frequency (C) are indicated (n=3/group). Hexavalent (Kifc1^−, Nf1^−, Acbd4^−, Rfx7^−, Qpct1^−, and Nup153-derived) peptides or an irrelevant Trp2180-188 peptide was used to elicit antigen-reactive effector cells. CFSE-labeled MC38 cells were stimulated with either 0.1% DMSO or hexavalent peptides for 2 hours and then co-cultured with effector cells for 24 hours. Annexin V was used for monitoring early and late apoptotic cell frequencies. *** represents p<0.001. D: For the nontargeting control (NC) or B2M KO clone (n=3/group), annexin V^+/CFSE^+ frequencies in the same experimental condition as (C) are shown. ** represents p<0.01.
[FIG. 7] A: In vitro tumor-killing activity mediated by individual splice-neoantigens. Quantitative data of annexin V^+/CFSE^+ frequencies are shown (n=3/group). CFSE-labeled MC38 cells, with or without IFN-pretreatment, were further stimulated with either 0.1% DMSO, hexavalent peptides, or individual peptides for 2 hours, and then co-cultured with hexavalent peptide-reactive effector cells for 24 hours. Data are shown as the mean±SEM. Experiments were performed at least twice. B: Tumor suppressive effect by hexavalent or individual splice-neoantigen vaccination. Tumor volumes of mice on day 23 are shown. Mice were subcutaneously vaccinated with 100 μg of peptide and 50 μg of Poly(I:C) on days 11 and 18. In groups indicated by (−), 5% DMSO was injected instead of peptide. Compound 1 ([…]) or vehicle control (0.1% DMSO) was intratumorally given once daily. Data are shown as the mean±SEM (n=7/group). Experiments were performed once.
Splenocytes were prepared from mice vaccinated with either hexavalent splice-neoantigens or an irrelevant Tpr2180-188 antigen, and then further stimulated with BMDCs pulsed with the same antigen(s) in the presence of IL-2. Tumor-killing activity was quantified based on the frequency of Annexin V^+/CFSE^+24 hours after co-culture with antigen(s)-elicited effector cells and CFSE-prelabeled target cells. […] As a result, this tumor-killing activity was absent for the B2m KO MC38 cells (FIG. 6-1D).
Splenocytes were prepared from peptide(s)-vaccinated mice inoculated with Poly(I:C) on day 14, as described in the section of “ELISpot assay”. To further elicit antigen-specific CD8^+ T cells, freshly isolated splenocytes were co-cultured with peptide(s)-pulsed bone marrow-derived dendritic cells (BMDCs) in the presence of 10 ng/ml IL-2 (Peprotech) for another 7 days. Culture was maintained by replacing half of the medium every 2 or 3 days. Splenocytes stimulated with BMDCs, as effector cells, were then co-cultured with target cells at an effector target ratio of 5:1 for 24 hours to examine their lytic activity. For the preparation of target cells, in the previous day of co-culture with effector cells, cells were labeled with […] carboxyfluorescein diacetate succinimidyl ester (CFSE; Dojindo) for 10 minutes, and incubated with FBS for additional 10 minutes to stop the labeling reaction. After washing with medium twice, cells were cultured overnight in the presence of 10 ng/ml IFN-γ. The next day, target cells were pulsed with 10 ng/ml peptide(s) for 2 hours prior to co-culture or treated with Compound 1 in the presence of effector cells. After 24 hours of co-culture, cells were stained with annexin V (Biolegend) in an annexin V binding buffer for 15 minutes and subjected to flow cytometry analysis. Effector cell-mediated killing activity was calculated from the frequencies of annexin V^+/CFSEt.

In another experiment the test system is CD8^+ T cells. Kind of experiment: IFN-γ ELISpot assay. In kind it is cell-based. To be noted: splenocytes of vaccinated mice co-cultured with peptide-pulsed BMDCs. As for the experimental part:
The 22 splice-neoantigen candidates and a melanoma antigen peptide, tyrosinase-related protein 2 (TRP2) 180-188, serving as a positive control, were synthesized. […] mice were vaccinated twice with the synthesized peptides in the presence of Poly(I:C) as an adjuvant. Then, splenocytes were prepared from the vaccinated mice and co-cultured with peptide-pulsed bone marrow-derived dendritic cells (BMDCs) for 24 hours, and the activation of CD8^+ T cells was evaluated using an IFN-γ ELISpot assay (FIG. 5-1A).
Eight-week-old female C57BL/6N mice were subcutaneously injected with 100 μg of synthesized peptides (Genscript Japan) and 50 μg of poly(I:C) formulated in PBS (5 peptides/mouse) on days 0 and 7. H2-K^b TRP-2180-188 peptide (MBL International, Woburn, MA) was used as a positive control. Mice were sacrificed 12 days after the initial injection, and splenocytes were isolated. As stimulators, bone marrow-derived dendritic cells (BMDCs) were generated as described previously, with some modifications. Briefly, bone marrow cells were isolated from femurs of the 8-week-old female C57BL/6N mice through centrifugation on day 2. Cells were passed through a 70-um cell strainer and seeded in 10-cm petri dishes with RPMI1640 containing 10% FBS, 100 U/mL P/S, 2 mM L-glutamine, 50 μM 2-ME, and 20 ng/ml Gm-csf (Peprotech, Rocky Hill, NJ). Culture was maintained by replacing half of the medium every 2 or 3 days. On day 12, most of the nonadherent cells had acquired typical dendritic morphology, and these cells were pulsed with peptides (2 μg/ml) for 2 hours at 37° C. ELISpot assay was performed using a Mouse IFN-γ ELISpot BASIC kit (Mabtech AB, Nacka Strand, Sweden) as per the manufacturer's instructions. Freshly isolated splenocytes (5× 10^5 cells) were co-incubated with peptide-pulsed BMDCs (4×10^4 cells) overnight at 37° C. under 5% CO2 conditions in an ELISpot PVDF white plate coated with anti-IFN-γ antibody (clone AN18). Then, IFN-γ secretion was detected using a […] (clone R^4-6A2) and a BCIP/NBT-plus substrate. After leaving the plate to dry, the spot number was counted using a dissection microscope. Spot images were acquired using an ImmunoSpot S6 Ultimate Analyzer (Cellular Technology Limited, Cleveland, OH).

Experiment [2] relates to splenocytes (CD8^+ and CD4^+ T cells). The experiment is described as follows: Ex vivo splenocyte culture assay (antigen-independent T cell activation). Type of experiment: cell-based, mice. To be noted: 24 hours, flow cytometry. A general note: In flow cytometry, cells or beads pass a laser one at a time.
For the next experiment, the system named is tumor cells. To be noted: cited from earlier work.
The subject of experiment [3] is various murine cancer cell lines (LLC, Pan02, WEHI3, CT26, EG7, B16, MC38). The experiment is described as follows: RNA-seq analysis of splice-neoantigen producing events in various murine cancer cell lines. In kind it is cell-based. As for the experimental part:
[FIG. 5-2] Continuation of FIG. 5. D and E: RT-PCR analysis for splice-neoantigen coding forms (splice-NA forms) in MC38 cells treated with 10 µM Compound 1 or vehicle control (0.1% DMSO) for 6 hours. Actb served as a loading control. * represents p<0.05, ** represents p<0.01, and *** represents p<0.001. F: Splice-neoantigen producing rates calculated from RNA-seq data (n=3 biological replicates) are indicated as the APSI (Compound 1-DMSO). All data are shown as the mean±SEM. All experiments were performed at least twice. Statistical significance was determined using unpaired Student's t-test for (B) and (E).
Then, whether the Compound 1-induced splice-neoantigens are shared across cancer type was examined using murine lung carcinoma LLC, pancreatic ductal adenocarcinoma Pan02, leukemia WEHI3, colorectal adenocarcinoma CT26, lymphoma EG7, and skin melanoma B16 cells.
The effects of Compound 2 on RNA splicing events (splicing alterations) producing the aforementioned six splice-neoantigens in various murine cancer cell lines were investigated through RNA-Seq analysis in the same manner as in FIG. 5-2F, except that Compound 1 was replaced with Compound 2 (FIG. 8).

For experiment [4], the system named is MC38 cells. The experiment is described as follows: IFN-γ signaling and expression of MHC class I components and PD-L1 in MC38 cells. Type of experiment: cell-based, murine. From the text: MHC class I expressed in cancer cells is critical for neoantigen presentation, which is indispensable for CD8^+ T cell-dependent immune surveillance and tumor killing. To investigate whether Compound 1 modulates the neoantigen presentation pathway, first, the effects of Compound 1 on IFN-γ signaling and the expression of MHC class I components, including […] (B2M) and H2-K^b in MC38 cells, were examined because CD8^+ T cell-secreted IFN-γ is a major inducer of MHC class I components. […] In contrast, any changes in the expression of PD-L1 were not detected in host dendritic cells or macrophages. […] However, these alterations were likely not the functional mechanisms through which Compound 1 exerts its antitumor effects (FIGS. 1-2O and 1-2P), as enhanced antitumor effects of Compound 1 were observed when co-administered with αPD-L1.

Regarding “SILGFTMV (listed as Mus musculus) [Acbd4, splice-neoantigen peptide derived from altered splicing of Acbd4]”, the “tumor-killing responses, individual epitopes” value (“tumor-killing responses” below) in the experiment with MC38 cells [1] is on record as “significantly triggered the tumor-killing responses”. Further, the “immunogenicity, IFN-γ ELISpot” value in the experiment with CD8^+ T cells is “immunogenic”.
On to “SQPLPNKIGF (listed as Mus musculus) [Nup153, splice-neoantigen peptide derived from altered splicing of Nup153]”, for which, in the experiment on MC38 cells [1], the “tumor-killing responses” value is reported as “significantly triggered the tumor-killing responses”. Besides, the “immunogenicity, IFN-γ ELISpot” value with CD8^+ T cells is listed as “immunogenic”.
On the same counts, the results for “MALSNKAYV (listed as Mus musculus) [Kifc1, splice-neoantigen peptide derived from altered splicing of Kifc1]” are “significantly triggered the tumor-killing responses” and “immunogenic”.
With “concanavalin A [concanavalin A (ConA), reference compound]”, the “CD44^+ and CD69^+ marker expressions in CD8^+ and CD4^+ T cells” value in experiment [2] is “promoted”.
For the molecule “RNRSHIFPL (listed as Mus musculus) [Nf1, splice-neoantigen peptide derived from altered splicing of Nf1]”, the “tumor-killing responses” value in the experiment with MC38 cells [1] is “significantly triggered the tumor-killing responses”. Also, the “immunogenicity, IFN-γ ELISpot” value with CD8^+ T cells is “immunogenic”.
Turning to `NS(=O)(=O)c1ccc(S(=O)(=O)Nc2cccc3c(Cl)c[nH]c23)cc1` [Indisulam], in the experiment on tumor cells, the “splicing events and splice-neoantigens in tumor cells” value was “diversely alters splicing events and generates splice-neoantigens”.
As to `N=C1NC(=O)/C(=C/c2ccc3c(c2)CCO3)S1` [Compound 2], the “splicing alterations of the Kifc1 gene producing peptides containing MALSNKAYV” value in experiment [3] (MC38 and B16) was “markedly observed”. Besides, the “splicing alterations of the Rfx7 gene producing peptides containing SLLLLYLQL” value in experiment [3] (all the cancer cell lines) was “markedly observed”. In addition, the production of splice-neoantigens entry in experiment [3] (various murine cancer cell lines, RNA-Seq) was “increases the production of splice-neoantigens”.
With “Tpr2: melanoma antigen peptide, tyrosinase-related protein 2 (TRP2) 180-188; control antigen (SVYDFFVWL; UniProt P29812 180-188, looked up, fragment) [reference compound]”, the “tumor-killing activity of antigen-elicited effector cells” value in the experiment on MC38 cells [1] (MC38 cells presenting six splice-neoepitopes, 24 hours co-culture, Annexin V^+/CFSE^+) is “did not exhibit any response”.
On to `CC(C)Oc1ccc(-c2c[nH]cc2CN(C)CCN)cc1` [MS-023], for which the “splicing events and splice-neoantigens in tumor cells” value with tumor cells was “diversely alters splicing events and generates splice-neoantigens”.
Take “KQQELFVLL (listed as Mus musculus) [Qpct1, splice-neoantigen peptide derived from altered splicing of Qpctl]”: the “immunogenicity, IFN-γ ELISpot” value in the experiment with CD8^+ T cells is on record as “immunogenic”.
Regarding “SLLLLYLQL (listed as Mus musculus) [Rfx7, splice-neoantigen peptide derived from altered splicing of Rfx7]”, the “tumor-killing responses” value in the experiment on MC38 cells [1] is “significantly triggered the tumor-killing responses”. Further, in the experiment on CD8^+ T cells, the “immunogenicity, IFN-γ ELISpot” value is “immunogenic”.

B1: IFN-γ: interferon-γ, major inducer of MHC class I components (protein, UniProt P01579 24-161, looked up)
Interferon gamma: QDPYVKEAENLKKYFNAGHSDVADNGTLFLGILKNWKEESDRKIMQSQIVSFYFKLFKNFKDDQSIQKSVETIKEDMNVKFFNSNKKKRDDFEKLTNYSVTDLNVQRKAIHELIQVMAELSPAAKTGKRKRSQMLFRG
B1: in the experiment on MC38 cells [4], the “phosphorylation of STAT1 and STAT3 and expression of B2M protein” value was “robustly induced”.
